Experimental data as given in patent publication US11034913B2, “Metal working fluid” (Henkel AG & Co. KGaA, priority 2015, dated 2021).

Columns and labels:
Type in all cases: cell-based
[1] = test system: mixed Gram-negative bacteria; experiment: Minimum inhibitory concentration testing (biostat candidate screening, Phase 1 and Phase 2; dip slide counts)
[2] = test system: Mixed Gram Negative Bacteria; experiment: Mycobacterium challenge, four-week re-inoculation test: mixed Gram-negative bacteria count; conditions: 5 w/w % dilution
Protocol: (§1) A tap water dilution of the metal working fluid for the Mycobacterium challenge was made to a concentration of 5 w/w %. The sample was tested by Biosan Laboratories, in Warren, Mich., USA, an independent commercial biological laboratory, for biostatic activity against Mycobacterium and against mixed Gram-negative bacteria.
(§2) The test method evaluated the effectiveness of antimicrobial agents in controlling Mycobacterium immunogenum in the presence of high background population of Gram-negative and other bacteria responsible for metal working fluid deterioration. Sample metal working fluids including the biostat of Example 5 and antimicrobial agents were prepared at use concentrations. 1% iron chips were added to the diluted metal working fluid samples. Two microbial populations were then introduced at a 1% level: an undefined Gram-negative bacterial inoculum isolated from a contaminated metal working fluid, and an inoculum containing Mycobacterium immunogenum. The inoculated test metal working fluids were incubated at room temperature (22+2° C.) on an orbital shaker for four weeks. During the four week test period, the metal working fluids were evaluated twice weekly for bacterial and mycobacterial contamination before being re-inoculated with both microbial suspensions at 1% concentrations. This re-inoculation method ensured sufficient viable Gram-negative and Mycobacterium levels throughout the test.

[3] = test system: Mycobacterium immunogenum; experiment: Mycobacterium challenge, four-week re-inoculation test: Mycobacterium count; conditions: 5 w/w % dilution
Protocol: as §1, §2

[4] = Phase 1, log bacterial counts at 24 and 48 h versus DCHA standard, scale 0-6, 3 = matches DCHA standard, higher = better
[5] = Sample 1, Day 0 (Initial Inoculum)
[6] = Sample 2, Day 0 (Initial Inoculum)

CC(CN)CCCN (stereo not shown) [Example 5, Methylpentamethylene diamine]
Differential Value Scores, Average ([1]; Phase 1, average of Rounds 1-3, scale 0-6, 3 = matches DCHA standard): 3.3
Differential Value Scores, Round 1 [1, 4]: 2.5
Differential Value Scores, Round 2 [1, 4]: 4.5
Differential Value Scores, Round 3 [1, 4]: 3
Biostatic efficacy regarding Gram-negative bacteria compared with the DCHA standard ([1]; result in words, 3 wt. % amine in metal working fluid): outperformed DCHA
Mixed Gram Negative Bacteria count [2, 5]: ~1 × 10^6 cfu/ml
Mixed Gram Negative Bacteria count ([2]; Sample 1, Day 2): <2 cfu/ml
Mixed Gram Negative Bacteria count ([2]; Sample 1, Day 7): <2 cfu/ml
Mixed Gram Negative Bacteria count ([2]; Sample 1, Day 9): <2 cfu/ml
Mixed Gram Negative Bacteria count ([2]; Sample 1, Day 14): <2 cfu/ml
Mixed Gram Negative Bacteria count ([2]; Sample 1, Day 16): <2 cfu/ml
Mixed Gram Negative Bacteria count ([2]; Sample 1, Day 21): <2 cfu/ml
Mixed Gram Negative Bacteria count ([2]; Sample 1, Day 23): <2 cfu/ml
Mixed Gram Negative Bacteria count [2, 6]: ~1 × 10^6 cfu/ml
Mixed Gram Negative Bacteria count ([2]; Sample 2, Day 2): <2 cfu/ml
Mixed Gram Negative Bacteria count ([2]; Sample 2, Day 7): <2 cfu/ml
Mixed Gram Negative Bacteria count ([2]; Sample 2, Day 9): <2 cfu/ml
Mixed Gram Negative Bacteria count ([2]; Sample 2, Day 14): <2 cfu/ml
Mixed Gram Negative Bacteria count ([2]; Sample 2, Day 16): <2 cfu/ml
Mixed Gram Negative Bacteria count ([2]; Sample 2, Day 21): <2 cfu/ml
Mixed Gram Negative Bacteria count ([2]; Sample 2, Day 23): <2 cfu/ml
Mycobacterium immunogenum count [3, 5]: ~1 × 10^5 cfu/ml
Mycobacterium immunogenum count ([3]; Sample 1, Day 2): <2 cfu/ml
Mycobacterium immunogenum count ([3]; Sample 1, Day 7): <2 cfu/ml
Mycobacterium immunogenum count ([3]; Sample 1, Day 9): <2 cfu/ml
Mycobacterium immunogenum count ([3]; Sample 1, Day 14): <2 cfu/ml
Mycobacterium immunogenum count ([3]; Sample 1, Day 16): <2 cfu/ml
Mycobacterium immunogenum count ([3]; Sample 1, Day 21): <2 cfu/ml
Mycobacterium immunogenum count ([3]; Sample 1, Day 23): <2 cfu/ml
Mycobacterium immunogenum count [3, 6]: ~1 × 10^5 cfu/ml
Mycobacterium immunogenum count ([3]; Sample 2, Day 2): <2 cfu/ml
Mycobacterium immunogenum count ([3]; Sample 2, Day 7): <2 cfu/ml
Mycobacterium immunogenum count ([3]; Sample 2, Day 9): <2 cfu/ml
Mycobacterium immunogenum count ([3]; Sample 2, Day 14): <2 cfu/ml
Mycobacterium immunogenum count ([3]; Sample 2, Day 16): <2 cfu/ml
Mycobacterium immunogenum count ([3]; Sample 2, Day 21): <2 cfu/ml
Mycobacterium immunogenum count ([3]; Sample 2, Day 23): <2 cfu/ml
